Data as given in article PMC10381170, “1,3,4-Oxadiazole and 1,3,4-Thiadiazole Nortopsentin Derivatives against Pancreatic Ductal Adenocarcinoma: Synthesis, Cytotoxic Activity, and Inhibition of CDK1” (Marine Drugs, 2023).

Legend:
Panc-1 cells = assay: SRB antiproliferative assay, Panc-1; format: cell-based, human
Description: (§1) The cytotoxic activity of the nortopsentin derivatives 3b, 3e, 4c, 5b, and 6c on pancreatic cancer cells (BxPC-3, Panc-1, Suit-2, Capan-1, PaTu-T, primary PDAC-3 and resistant Panc-1-GR cells) was determined by the sulforhodamine B (SRB) chemosensitivity assay, as described previously. Cells were plated in 96-well flat-bottom plates at final concentrations ranging from 3000–5000 cells/well in 100 µL of medium. After a 24 h pre-incubation period, cells were treated with the compounds at nine screening concentrations (from 0.1 μM to 40 μM) in triplicate and incubated at 37 °C for 72 h. After the treatment, cells were fixed with 25 µL of cold 50% trichloroacetic acid (TCA) for each well and incubated at 4 °C for 1 h. Afterwards, plates were washed five times with demi-water and air-dried overnight. Then, the plates were stained with 50 µL of 0.4% SRB solution in 1% acetic acid for 15 min. The excess stain was rinsed off by placing the plates under running 1% acetic acid and allowed to dry at room temperature overnight. SRB staining was rinsed with 150 µL tris(hydroxymethyl)aminomethane solution pH = 8.8 (TRIS-base), and the optical density (OD) was read at 492 nm. Each assay was performed in triplicate and assays were repeated at least three times. The comparison of the average optical density of the growth in control wells with that in the sample wells allowed the estimation of the percentage of cell growth, using the following equation: % Cell Growth = (mean ODcompound − mean ODday zero plate)/(mean ODcells − mean ODday zero plate) × 100
(§2) The results obtained were adjusted by the day zero plate (wells containing cells growing for only 24 h) and normalized by the control cells (wells with untreated cells) to obtain the rate of viable cells.

Panc-1-GR cells = assay: SRB antiproliferative assay, gemcitabine-resistant Panc-1-GR; format: cell-based, human
Description: as §1, §2

Capan-1 cells = assay: SRB antiproliferative assay, Capan-1; format: cell-based, human
Description: as §1, §2

PDAC-3 cells [1] = assay: SRB antiproliferative assay, primary culture PDAC-3; format: cell-based, human
Description: as §1, §2

PDAC-3 cells [2] = assay: Cell-cycle analysis by PI flow cytometry, PDAC-3; format: cell-based, human
Description: (§3) Cell cycle perturbation was analyzed by flow cytometry. Optimized numbers of cells (5 × 10^5 cells/mL) were seeded in 6-well plates. […] After treatment, the cells were harvested by trypsinization (250 µL trypsin-EDTA/well), incubated until the cells detached, re-suspended using the same medium used for culture, collected in specific FACS (Fluorescence Activated Cell Sorting) tubes, and washed with 1.5 mL phosphate-buffered saline (PBS). The samples were then centrifuged to form a pellet (5 min at 1500 rpm). These pellets were fixed in 1 mL of ice-cold 70% ethanol, added drop by drop during vortex, and placed in the refrigerator at 4 °C. After overnight incubation, the cells were washed twice with PBS, centrifuged (5 min at 1500 rpm), re-suspended in […] of RNase ([…]) and incubated for 30 min at 37 °C. Finally, […] of propidium iodide solution (PI, […]) was added, and the cell distribution in the various phases of the cell cycle was analyzed in a FACS Calibur instrument. Data analysis was carried out with FACSdiva software (Becton Dickinson), while cell cycle distribution was determined using Modfit software (Verity-Software, Topsham, ME, USA).

Suit-2 cells = assay: Cell-cycle analysis by PI flow cytometry, Suit-2; format: cell-based, human
Description: as §3

BxPC-3 cells = assay: Scratch wound-healing assay, BxPC-3; format: cell-based, human; conditions: BxPC-3, 8 h, 4 × IC50, untreated = 100% wound closure
Description: Cell migration was assessed using a wound-healing assay, as described previously. A total of 5 × 10^4 cells/well were seeded in a 96-well plate, to form a confluent monolayer. Scratches were created in confluent cell layers using the sterile scratch tool. The detached cells following scratch induction were removed and new medium was added to the wells. Cells were next treated with compounds 3b and 5b at a concentration of 4 × IC50. Cells growing in a complete medium were maintained at 37 °C with a supply of 5% CO2/95% air atmosphere and 100% relative humidity. The progress of wound closure was observed and documented at various time points (0th, 4th, 8th, 20th, and 24th h) using phase-contrast microscopy. Pictures of the plates were taken using the Universal Grab 6.3 software (DCILabs) from a computer connected to a Leica microscope with a JAI TMC-1327 camera.
The percentage of migration was calculated using the following equation:%Migration = (Width of the wound at T = 0 − Width of the wound at T = X)/(Width of the wound at T = 0) × 100

CDK1 [3] = assay: CDK1 ELISA in Suit-2; format: cell-based, human; conditions: Suit-2, 10 µM, 24 h, vs DMSO control, p < 0.01
Description: (§4) The expression of CDK1 was detected and quantified using an Enzyme-Linked Immunosorbent Assay (ELISA, Human cyclin-dependent kinase 1 (CDK1) ELISA Kit, Catalog Number: MBS707090) according to the manufacturer’s protocol and our previous studies. Volumes of 100 µL of the standard and the sample were added for each well, and the plates were incubated for 2 h at 37 °C. Then, the liquid was removed, and 100 µL of biotin-antibody was added to each well; the plates were then incubated for 1 h at 37 °C. The medium was removed, and the plates were washed with wash buffer (200 µL). Subsequently, 100 µL of HRP-avidin was added to each well, and the plates were incubated for 1 h at 37 °C. The washing process was repeated five times. At the end, 90 µL of TMB substrate was added to each well, and the plates were incubated for 30 min at 37 °C in the dark. Finally, 50 µL of stop solution was added to each well. The optical density of each well was determined using a microplate reader set to 450 nm.

CDK1 [4] = assay: CDK1 ELISA in PDAC-3; format: cell-based, human; conditions: PDAC-3, 10 µM, 24 h, vs DMSO control, p < 0.01
Description: as §4

[5] = Suit-2, 2 μM, 24 h (control 23%)
[6] = Suit-2, 4-fold IC50, 24 h (control 23%)

## Cn1cc(-c2nnc(-c3cn(C)c4ncccc34)o2)c2ccccc21 [3b, 1-methyl-3-[5-(1-methyl-1H-indol-3-yl)-1,3,4-oxadiazol-2-yl]-7-azaindole]
Panc-1 cells; Homo sapiens, Panc-1, 72 h, mean ± SEM, read-out: Half-maximal inhibitory concentration (IC50)
  IC50: 2.5 ± 0.55 µM
Panc-1 cells; Panc-1, 10 μM, 72 h exposure
  Cell growth percentage: 9.12%
Panc-1-GR cells; 10 μM, 72 h exposure
  Cell growth percentage: 22.47%
Panc-1-GR cells; Homo sapiens, 72 h, mean ± SEM, read-out: Half-maximal inhibitory concentration (IC50)
  IC50: 8 ± 2.8 µM
Capan-1 cells; Capan-1, 10 μM, 72 h exposure
  Cell growth percentage: 18.33%
Capan-1 cells; Homo sapiens, Capan-1, 72 h, mean ± SEM, read-out: Half-maximal inhibitory concentration (IC50)
  IC50: 2.6 ± 0.62 µM
PDAC-3 cells [1]; Homo sapiens, PDAC-3, 72 h, mean ± SEM, read-out: Half-maximal inhibitory concentration (IC50)
  IC50: 8.1 ± 0.14 µM
PDAC-3 cells [1]; PDAC-3, 10 μM, 72 h exposure
  Cell growth percentage: 38.35%
PDAC-3 cells [2]; PDAC-3, 2 μM, 24 h (control 16%)
  percentage of cells in G2-M phase: 23%
PDAC-3 cells [2]; PDAC-3, 2 μM, 24 h (control 25%)
  percentage of cells in S phase: 23%
PDAC-3 cells [2]; PDAC-3, 2 μM, 24 h (control 59%)
  percentage of cells in G0-G1 phase: 54%
PDAC-3 cells [2]; PDAC-3, 4-fold IC50, 24 h (control 16%)
  percentage of cells in G2-M phase: 52%
PDAC-3 cells [2]; PDAC-3, 4-fold IC50, 24 h (control 25%)
  percentage of cells in S phase: 19%
PDAC-3 cells [2]; PDAC-3, 4-fold IC50, 24 h (control 59%)
  percentage of cells in G0-G1 phase: 29%
Suit-2 cells; [5]
  percentage of cells in G2-M phase: 75%
  percentage of cells in S phase: 15%
Suit-2 cells; Suit-2, 2 μM, 24 h (control 54%)
  percentage of cells in G0-G1 phase: 10%
Suit-2 cells; [6]
  percentage of cells in G2-M phase: 76%
  percentage of cells in S phase: 14%
Suit-2 cells; Suit-2, 4-fold IC50, 24 h (control 54%)
  percentage of cells in G0-G1 phase: 10%
BxPC-3 cells
  percentage of cells migrating: 39%
CDK1 [3]
  CDK1 expression by ELISA: reduction in CDK1 expression
CDK1 [4]
  CDK1 expression by ELISA: reduction in CDK1 expression
other
  melting point: 239 °C
